In a melting point compilation (Tetko et al.; mined from patent text by program, amines drawn as free bases though some values may be those of a salt):

| Structure (SMILES) | melting point |
| --- | --- |
| CCN1C(=O)CSC1=NOC(=O)NCCCl | 99 to 102 °C |
| CCOCCn1c(CN2CCN(Cc3ccccc3)CC2C)nc2cccnc21 (configuration not stated) | 91.2 °C |
| COc1cc(C=CCO)ccc1OCc1ccccc1 | 81 to 82 °C |
| CN1C(=O)C2CCCCC2N=C1c1ccccc1 (configuration not stated) | 79 to 82 °C |
| Cc1ccc(C)c([PH](=O)O)c1 | 73 to 80 °C |
| C1COC(NC(C2CC2)C2CC2)=N1 | 105 to 106 °C |
| CN(Cc1ccccc1)c1cc(C(=O)O)ccc1C(N)C(=O)O (configuration not stated) | 193 °C |
| CC(C)(O)C(=O)Nc1c(C(=O)c2ccccc2)[nH]c2cc(Cl)ccc12 | 234 to 238 °C |
| Clc1ccc(CCOc2ncnc3ccccc23)cc1 | 57 to 58 °C |
| COC(=O)c1nc(NC(C)=O)ccc1Oc1cc(OC)cc(OC)n1 | 128 to 130 °C |
| O=C(O)C1(C(=O)Nc2ccc(F)cc2F)CC1 | 160 to 163 °C |
| O=C1NC(=O)C(=Cc2ccc(OCCNc3ncccn3)cc2)S1 | 234 °C |
| Cc1ccc(C(=Cc2nnnn2C)c2ccc(C)cc2C)c(C)c1 | 143 to 144 °C |
| Cc1ccc2c(c1)C(C(=O)Nc1c(C)cccc1C)c1ccccc1CO2 (configuration not stated) | 162 to 163 °C |
| CC(OC(=O)N(C(C)C)C(C)C)c1ccccc1[N+](=O)[O-] (configuration not stated) | 40 to 41 °C |
| COc1ccccc1C(=O)NS(=O)(=O)c1ccc(NC(=O)c2ccc(Cl)cc2Cl)cc1 | 140 to 146 °C |
| CCCC1=C(C(=O)OCC)C(c2ccncc2)c2c[nH]nc2N1 (configuration not stated) | 266 °C |
| CN(C(C)(C)C)S(=O)(=O)c1cccnc1SCc1ccccc1 | 92 to 94 °C |
| O=C1SC(Cc2ccc(OCCON=Cc3ccc4ccccc4n3)cc2)C(=O)N1C(c1ccccc1)(c1ccccc1)c1ccccc1 (configuration not stated) | 127 to 130 °C |
| CCOC(=O)N(c1ccc(Cl)cc1N)c1ccc(Cl)cc1Cl | 137 to 139 °C |
| COc1ccc2cc(C(=O)O)oc2c1 | 208 to 211 °C |
| Oc1nc2c(Cl)nc3ccccc3c2n1CC1CCOCC1 | > 275 °C |
| CON=C(C(=O)NN)c1ccccc1COc1cc(C)ccc1C | 124 to 126 °C |
| CCCOc1ccc(CCC(=O)N2CCOCC2)cc1-c1nc2c(c(C)nn2CCC)c(=O)[nH]1 | 132 to 133 °C |
| CCc1c2nc(-c3cc(S(C)(=O)=O)ccc3OCC(C)C)[nH]c(=O)c2nn1Cc1ccccn1 | 235 to 238 °C |
| COc1nc2cc(Cl)c(C)c(NS(C)(=O)=O)c2nc1OC | 228 to 229 °C |

| Structure (SMILES) | melting point |
| --- | --- |
| CCN1CCN(c2nc(-c3ccc(OC)cc3)nc3sc(C#N)c(C)c23)CC1 | 173 to 175 °C |
| Cc1nc2c(O)c(CC[C@H](O)c3ccccc3)c(C(=O)N(C)C)cn2c1C | 185 to 187 °C |
| Nc1nc(Cl)c2ncn(COCCOCCOC(=O)c3ccccc3)c2n1 | 111 to 112 °C |
| O=[N+]([O-])c1cc(Cl)ncc1CCc1ccccc1 | 76 to 78 °C |
| Fc1ccc(C(OCCN2CCN(C(c3ccc(F)cc3)c3ccc(F)cc3)CC2)c2ccc(F)cc2)cc1 | 87 to 88 °C |
| C[C@@H](CO)n1cc(C(=O)O)c(=O)c2cc(F)c(N3CCN(C)CC3)c(F)c21 | 250 to 255 °C |
| CCCCCCCCCCCC1Cc2c(cccc2C(=O)O)N1 (racemic) | 105 to 108 °C |
| CN1CCC(c2c[nH]c3ccc(NC(=O)c4cccc(Cl)c4)nc23)CC1 | 110 to 111 °C |
| O=c1c(Cc2ccncc2)c(-c2ccccc2)[nH]c2ccccc12 | 222 to 224 °C |
| CN1C(=O)CN=C(c2ccccc2)c2ccccc21 | 151 to 154 °C |
| NS(=O)(=O)c1ccc(-c2cscc2-c2ccc(F)cc2)cc1 | 194 to 195 °C |
| COc1cc(C(C)=NNC(=N)NCc2ccccc2)cc(OC)c1OC | 107 to 109 °C |
| CCn1nc2c(N)nc3ccccc3c2c1CC1(F)CCOCC1 | 275 to 277 °C |
| CCOC(=O)c1cc(S(=O)(=O)N2CCN(CC)CC2)cnc1OCC | 66 to 68 °C |
| O=C(O)C(Cl)=C(Cl)C(O)=NCCc1ccc(F)cc1 | 137 to 138 °C |
| CCCOc1cc(NC(=O)NC(C)C)ccn1 | 77 to 79 °C |
| CCCCc1nn(-c2cc(NC(=O)CC)ccc2Cl)c(=O)n1Cc1ccc(-c2ccccc2S(=O)(=O)NC(=O)c2ccccc2Cl)cc1F | > 152 °C |
| CNC(=O)CNC(=O)c1ccc(C)c(-n2c(C)cc(OCc3ccccc3CNC(=O)Nc3cc(C(C)(C)C)nn3-c3ccc(O)c(Cl)c3)c(Cl)c2=O)c1 | 209 to 211 °C |
| CCOC(=O)CNC(=O)Oc1ccc([N+](=O)[O-])c2cccnc12 | 121 to 122 °C |
| N#COc1ccc(OC#N)cc1 | 117 to 119 °C |
| COCn1nnc(NC(=O)C2c3ccccc3Oc3ccccc32)n1 | 221 to 222 °C |
| CCCc1c(C(=O)OCC)c2c3c(ccc2n1C)OC1c2ccc(SC)cc2CCN1C3 (configuration not stated) | 139 to 143 °C |
| CCCc1c(OCc2ccc(OCC(=O)O)cc2)ccc(C(C)=O)c1O | 140 to 142 °C |
| CON(Cc1ccccc1C)C(=O)C1=C(O)C(=O)N(C)C1 | 153 to 154 °C |
| COc1cccc(C(C(N)=O)(c2c(Cl)cncc2Cl)C2CCCC2)c1 (configuration not stated) | 106 to 107 °C |
| Clc1ccc2c(C=Cc3ccccc3)ccnc2c1 | 120 to 122 °C |

| Structure (SMILES) | melting point |
| --- | --- |
| Cc1nc(N)sc1S(=O)(=O)NC(C)(C)CO | 146 °C |
| CCC(C)C(OCc1ccccc1)C1C(C(=O)NCC(=O)O)NC(C2CC2)C1[N+](=O)[O-] (configuration not stated) | 161 to 163 °C |
| Cc1noc(NS(=O)(=O)c2ccccc2-c2ccccn2)c1C | 136 to 137 °C |
| Cc1nnc(-c2ccc3occ(-c4cc(F)ccc4F)c3c2)o1 | 143 to 144 °C |
| Cc1c(C(=O)NC(C)(C)CO)cccc1[N+](=O)[O-] | 144 to 145 °C |
| O=C(COc1ccc(Cl)c2c(=O)c3ccccc3sc12)c1ccccc1 | 174 to 176 °C |
| CCCCCCCCCCCCCCC(=S)NCCCN1CCOCC1 | 46 °C |
| COc1ccc2[nH]c(SCc3nccc(SCc4ccco4)c3C)nc2c1 | 106 to 108 °C |
| CCOC(=O)/C(=N\O[C@H]1CC[C@H](Cl)CC1)c1csc(N)n1 | 155 °C |
| O=C(Nc1nccs1)C(CC1CCCC1)c1ccc(S(=O)(=O)C(F)(F)F)cc1 (configuration not stated) | 48 to 52 °C |
| O=c1oc2c(c(O)c1C(c1ccccc1)C1CC1)CCCCCC2CC1CCCOC1 (configuration not stated) | 89 to 95 °C |
| COc1cc(C(=O)c2ccc(N)c(C(=O)O)c2)n2ccccc12 | 106 °C |
| O=C(c1ccccc1)c1cc(Cl)ccc1N=C=S | 63 to 65 °C |
| COc1ccc(Nc2nccc(-c3ccc(Cl)nc3)n2)cn1 | 203 to 205 °C |
| CCc1cccc(CC)c1NC(=O)Nc1cnc(C)nc1-c1ccccc1Cl | 186 to 187 °C |
| CCN(CC)S(=O)(=O)c1nc2ccc([N+](=O)[O-])cc2n1CC | 90 to 91 °C |
| CC(=O)N[C@@H]1CCCC[C@H]1Nc1nc(Nc2ccc3c(c2)C(C)(C)CCC(=O)N3)ncc1Cl | 227 °C |
| O=C(O)c1ncn2c1Cn1ccnc1-c1sccc1-2 | 225 to 227 °C |
| CCOc1ccc(-c2ccc(N3CC(CNC(C)=O)OC3=O)cc2)ccc1=O (configuration not stated) | 228 to 229 °C |
| CS(=O)(=O)c1ccc(-c2sc(Cc3ccccc3)nc2-c2ccc(F)cc2)cc1 | 117 to 118 °C |
| CO[C@@H]1CCCC(c2ccc(C(=O)N3Cc4cccn4Cc4ccccc43)cc2C)=C1C | 127 to 128 °C |
| CN(CCO)c1cc2c(=O)n(NS(C)(=O)=O)c(=O)[nH]c2cc1C(F)(F)F | 220 to 224 °C |
| CC(=O)Oc1cccc2c1OC(C)(C)C2 | 49 to 50 °C |
| N/C(=C1/Sc2ccc(Cl)cc2C1=O)c1ccccc1Cl | 199 to 201 °C |
| CCNC(=O)c1c(Cl)cccc1NC(C)(C)C | 139 to 140 °C |
| CC[C@H]1CC[C@H](c2ccc(CCc3ccc(OC(F)F)cc3)cc2)CC1 | 51 °C |

| Structure (SMILES) | melting point |
| --- | --- |
| CCc1nnc(N2CCN(c3ccc(N4CC(CNC(C)=O)OC4=O)cc3F)CC2)s1 (configuration not stated) | 237 to 238 °C |
| N#Cc1ncccc1C(=O)OCC(Cl)(Cl)Cl | 103 °C |
| C=CCCCCCCCCOC(=O)C=Cc1ccccc1O | 58 °C |
| O=C(NC1CC2CCC1C2)n1cc(F)c(=O)[nH]c1=O (configuration not stated) | 252 to 255 °C |
| CC(=CC(NC=O)C(=O)OCc1ccccc1)CP(=O)(OC(C)C)OC(C)C (configuration not stated) | 50 to 58 °C |
| CC1(C)OC(=O)Nc2ccc(-c3cc(C#N)ccc3F)cc21 | 229 to 230 °C |
| CC1(c2cccc3c2CCc2ccccc2C3=O)OCCO1 | 144 to 145 °C |
| CCN(CCCC12CC3CC(CC(C3)C1)C2)C(=O)NCCCc1ccncc1 | 97.5 to 98.2 °C |
| COC(=O)COc1ccc(C(=O)C(C)(C)Br)cc1 | 46 to 50 °C |
| CC(C)(C)OC(=O)NCc1nc(C(=O)O)cs1 | 185 °C |
| CCCP(=O)(O)CC(=O)CNCc1ccccc1 | 155 to 157 °C |
| COc1nc(C(F)(F)F)cc(=O)n1-c1cc(OC(C)C)c(Br)cc1F | 137 °C |
| N#CNC(=O)[C@@H]1CCC(=O)N1C(=O)OCc1ccccc1 | 185 to 186 °C |
| CC(C)(C)n1[nH]c(Cc2ccncc2)c2c(=O)nc(-c3ccncc3)nc1-2 | 233 to 235 °C |
| O=C1c2cccc(O)c2CC12CCCCC2 | 162 to 164 °C |
| CCn1c(=O)c2[nH]c(/C=C/c3ccc(OC)c(C)c3)nc2n(CC)c1=O | > 270 °C |
| CC1(C)CCCc2cc3c(cc21)C(C)(C)CCC3(C)C | 94 to 95 °C |
| CCOc1ccc([N+](=O)[O-])nc1C | 82 to 84 °C |
| CC(C)C(=O)NCCNCC(O)COc1ccccc1 (single isomer, unassigned; (-)) | 89 to 91 °C |
| N#CC(c1ccc(Cl)cc1)c1c(Cl)cc(NN=Cc2ccccc2)cc1Cl (configuration not stated) | 162 to 163 °C |
| O=C1CN2C(=O)CCC2N1 (configuration not stated) | 155 to 157 °C |
| C[C@H]1[C@@H](C(N)=O)CCN1c1ccc(C#N)c2ccccc12 | 204 to 206 °C |
| NC(=O)C1CCN(Cc2cnc3cc(NC(=O)c4ccc(-c5ccc(Cl)cc5)cc4)ccc3c2)CC1 | 260 °C |
| COc1ccccc1Oc1c(NS(=O)(=O)c2ccc(C(C)(C)C)cc2)nc(NCCN(C)C)nc1OCCOc1ncc(Br)cn1 | 129 to 132 °C |
